Data on one compound can be found in US9457007B2, “Prenylflavanone compounds for modulating diabetes” (NATUREWISE BIOTECH & MEDICALS CORPORATION, priority 2013, dated 2016).

Type in all cases: in vivo
The test system of experiment [1] is STZ-induced diabetic mice. Nature of the experiment: Blood glucose in the STZ-induced diabetic mice. Conditions: propolins study; after administration for 8 weeks by gavage daily; PPC 9.0, PPD 6.75, PPF 4.5, PPG 4.5, Januvia 370 mg/kg/mouse. How it is done:
The male FBV mice of 5 weeks old, commercially available from BioLASCO Co., Ilan, Taiwan, were acclimatized for 1 week, prior to administration of streptozotocin (STZ) at 40 mg/kg for 3 consecutive days. STZ was formulated with an aqueous solution of sodium citrate (pH 4.5, 73.5 mg/5 mL) on ice, and then 100 μL of the formulation was dosed by intraperitoneal injection. From day 2 in the 3 consecutive days, the mice were dosed with 5% (w/v) glucose water for 6 consecutive days. After allowing the mice to rest for 10 days, blood glucose levels were measured. After administration of STZ for 1 week, about 5 μL of blood was collected from each of the mice at the tail vein, and was assayed for blood glucose by a blood glucose monitor and chip (FORA, California, U.S.A.). After 1 week, blood glucose was detected once more, and whether blood glucose was smooth or not was evaluated prior to grouping. The values of blood glucose in all of the mice induced to suffer from diabetes were brought to fall within about 300±50 mg/dL. […]
(§1) An appropriate amount of propolins and its relevant derivatives, such as PPA, PPB, PPC, PPD, PPE, PPF, PPG, PPH, PPI or PPJ, was dissolved with 3 ml 95% alcohol and then uniformly mixed with 80 μL Tween 80; after concentrating under reduced pressure for removal of alcohol, it was uniformly dispersed into 16 ml water to give a liquid mixture of propolins. This mixture was fed by 200 μL gavage into the diabetic mice designated as the propolins and its relevant derivative group.
(§2) Sitagliptin (trade name: Januvia), commercially available from American Merck Co., was used as the DPP4 inhibitor. An appropriate amount of sitagliptin was dissolved in water to provide a final concentration allowing administration of the mice at a dose of 370 mg/kg. In the following example, Januvia was representative of the DPP4 inhibitors and acted as a positive control group for reference.
(§3) Tween 80 (80 μL) was mixed into 16 ml water to give a placebo, which was fed by 200 μL gavage into the STZ-induced diabetic mice or normal mice (i.e., the mice without induction for diabetes). Oral gavage was carried out once at a fixed time each day, and weight, feedstuff intake and water intake were measured weekly until tests were finished at 12-13 weeks.

Experiment [2] relates to STZ-induced diabetic mice. As to the kind of experiment: Feedstuff intake of the diabetic mice. Particulars: for feedstuff intake: propolins study. How it is done: (§4) The male FBV mice of 5 weeks old, commercially available from BioLASCO Co., Ilan, Taiwan, were acclimatized for 1 week, prior to administration of streptozotocin (STZ) at 40 mg/kg for 3 consecutive days. STZ was formulated with an aqueous solution of sodium citrate (pH 4.5, 73.5 mg/5 mL) on ice, and then 100 μL of the formulation was dosed by intraperitoneal injection. From day 2 in the 3 consecutive days, the mice were dosed with 5% (w/v) glucose water for 6 consecutive days. After allowing the mice to rest for 10 days, blood glucose levels were measured. After administration of STZ for 1 week, about 5 μL of blood was collected from each of the mice at the tail vein, and was assayed for blood glucose by a blood glucose monitor and chip (FORA, California, U.S.A.). After 1 week, blood glucose was detected once more, and whether blood glucose was smooth or not was evaluated prior to grouping. The values of blood glucose in all of the mice induced to suffer from diabetes were brought to fall within about 300±50 mg/dL.
(§5) An appropriate amount of the Taiwan Green Propolis alcohol extract was dissolved with 3 ml 95% alcohol and then uniformly mixed with 80 μL Tween 80 as a cosolvent; after concentrating under reduced pressure for removal of alcohol, it was dispersed into 16 ml water to give a liquid mixture of the Taiwan Green Propolis extract. This mixture was fed by 200 μL gavage into the diabetic mice designated as the Taiwan Green Propolis extract group.
as §1, §2, §3

The subject of experiment [3] is STZ-induced diabetic mice. Nature of the experiment: Water intake of the diabetic mice. The procedure: as §4, §5, §1, §2, §3
Experiment [4] concerns STZ-induced diabetic mice. Nature of the experiment: Oral glucose tolerance test (OGTT). Details: reduction of AUC compared with the STZ group / extent of reduction of AUC compared with the STZ group: concentration or dose not given beside the values. How it is done:
as §4
After administration of the testing substance to the animals for 12 weeks, the OGTT test was performed for evaluation of secretion and effects of insulin. All of the mice in the test were administered with the testing substance and then fasted for 4 hours prior to blood sampling at the first point called point 0. Afterwards, the mice were fed by oral gavage with 200 μL glucose in water, equivalent to a dose of 1.0 g/kg. After administration, blood was collected for an assay of blood glucose at 15, 30, 60, 120 and 180 minutes, respectively. Therefore, a total of 6 points, including points at 0, 15, 30, 60, 120 and 180 minutes, were obtained. About 5 μL of blood was collected from each of the mice at the tail vein and was then assayed for blood glucose by the blood glucose monitor and chip (FORA, California, U.S.A.). The blood glucose values at the Y-axis were plotted against the time points at the X-axis. Each group was calculated for an area under curve for comparison. The efficacy in regulation of blood glucose was evaluated by the area showing a relationship between the testing substance and secretion and effects of insulin.

For experiment [5], the system named is STZ-induced diabetic mice. As to the kind of experiment: Analysis of glycosylated hemoglobin HbA1c. Conditions: TPE study, TPE 36 mg/kg, DPP4I 370 mg/kg. The procedure:
STZ was formulated with an aqueous solution of sodium citrate (pH 4.5, 73.5 mg/5 mL) on ice, and then 100 μL of the formulation was dosed by intraperitoneal injection. […] The glycosylated hemoglobin was used for evaluation of the efficacy of the testing substance in the regulation of blood glucose. […] (New Taipei City, Taiwan) for analysis. The analysis may confer an average and standard deviation to each group of the mice. In the event the presence of the blood glucose modulation efficacy for the testing substance, this value would be lower; and in the event the absence of the blood glucose modulation efficacy for the testing substance, this value would be higher.

Regarding `N[C@@H](CC(=O)N1CCn2c(nnc2C(F)(F)F)C1)Cc1cc(F)c(F)cc1F` [DPP4I, Sitagliptin, reference compound], the blood glucose in experiment [1] came to 330 mg/dL. Moreover, the “effect on food intake” value in experiment [2] (TPE study, 13 weeks, TPE 36 mg/kg/day, Januvia 370 mg/kg) is reported as “the test results were the same”. In addition, the feedstuff intake in experiment [2] (at 1 week) is given as 5.5 g/mouse; in experiment [2] (at 6 weeks) it was 6.5 g/mouse; in experiment [2] (at 8 weeks), 6.4 g/mouse. Besides, the water intake in experiment [3] (TPE study, after 8 weeks, TPE 36 mg/kg/day, Januvia 370 mg/kg) is given as 5.4 mL/day/mouse; in experiment [3] (TPE study, after 13 weeks, TPE 36 mg/kg/day, Januvia 370 mg/kg), 3.8 mL/day/mouse; in experiment [3] (TPE study, first week, TPE 36 mg/kg/day, Januvia 370 mg/kg) it was 7.0 mL/day/mouse; in experiment [3] (propolins study, at 1 week) it was 8.0 mL/mouse; in experiment [3] (propolins study, at 6 weeks), 12.0 mL/mouse; in experiment [3] (propolins study, at 8 weeks), 12.5 mL/mouse. Also, the “blood glucose value in glucose tolerance test” value in experiment [4] (TPE study, 0 point, glucose 1.0 g/kg oral, TPE 36 mg/kg, Januvia 370 mg/kg) is reported as “about 260 mg/dL”; in experiment [4] (TPE study, 30-minute time point after glucose in water), “about 420 mg/dL”; in experiment [4] (TPE study, 180-minute time point), 240 mg/dL. Also, in experiment [4] (TPE study, OGTT), the “reduction of AUC compared with the STZ group” value worked out at 66.1%. The “AUC value of blood glucose (integral area)” value in experiment [4] (TPE study, OGTT 0-180 min, TPE 36 mg/kg, DPP4I 370 mg/kg) is on record as “about 5.8×10^4”. Also, the “value of blood glucose in glucose tolerance test” value was “about 380 mg/dL” in experiment [4] (propolins study, 0 point, PPC 9.0, PPD 6.75, PPF 4.5, PPG 4.5, DPP4I 370 mg/kg/mouse); “about 450 mg/dL” in experiment [4] (propolins study, 30-minute time point after glucose in water); “about 450 mg/dL” in experiment [4] (propolins study, 120-minute time point); 400 mg/dL in experiment [4] (propolins study, 180-minute time point). In addition, the “AUC value for blood glucose (integral area)” value in experiment [4] (propolins study, OGTT) is listed as “about 7.2×10^4”. The “extent of reduction of AUC compared with the STZ group” value in experiment [4] (propolins study, OGTT) came out at 42.0%. For the same compound, in experiment [5] (13 weeks), the “reduction of the generation of glycosylated hemoglobin” value is listed as 55%. Also, the “value of glycosylated hemoglobin” value in experiment [5] (administration for 13 weeks) is recorded as “about 4.6%”.
